# Test results reported in patent publication US20090299044A1 (priority 2006, published 2009).
# Bridge positions count the residues as written; N and C are the ends. Peptide text beside a SMILES is read from it.
# What was measured:
# Assay in all cases: cell-based
# human Kv1.3 channel = human Kv1.3 channel (Homo sapiens, UniProt P22001); assay type: cell-based
# human Kv1.3 (CHO) = target: T1, human Kv1.3 (CHO) (Homo sapiens, UniProt P22001)
# T1 construct: expressed in transfected cells; host or cells: CHO
# T1 sequence (P22001 whole entry): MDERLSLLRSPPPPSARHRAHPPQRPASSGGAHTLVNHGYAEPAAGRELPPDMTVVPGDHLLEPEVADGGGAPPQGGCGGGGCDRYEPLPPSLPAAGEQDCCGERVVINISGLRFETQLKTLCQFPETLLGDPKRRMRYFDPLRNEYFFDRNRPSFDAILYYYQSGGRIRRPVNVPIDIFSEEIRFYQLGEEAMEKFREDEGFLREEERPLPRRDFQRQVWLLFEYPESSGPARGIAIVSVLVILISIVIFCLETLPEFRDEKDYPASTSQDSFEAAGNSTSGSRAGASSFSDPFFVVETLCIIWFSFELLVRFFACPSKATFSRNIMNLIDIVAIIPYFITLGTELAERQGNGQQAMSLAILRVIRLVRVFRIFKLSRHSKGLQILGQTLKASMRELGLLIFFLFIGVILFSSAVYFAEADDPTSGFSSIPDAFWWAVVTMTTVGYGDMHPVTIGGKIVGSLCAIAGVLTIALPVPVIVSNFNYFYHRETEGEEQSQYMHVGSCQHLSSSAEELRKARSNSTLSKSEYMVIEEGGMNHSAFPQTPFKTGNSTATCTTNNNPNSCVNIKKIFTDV
# human Kv1.1 (HEK293) = target: T2, human Kv1.1 (HEK293) (Homo sapiens, UniProt Q09470)
# T2 construct: expressed in transfected cells; host or cells: HEK293
# T2 sequence (Q09470 whole entry): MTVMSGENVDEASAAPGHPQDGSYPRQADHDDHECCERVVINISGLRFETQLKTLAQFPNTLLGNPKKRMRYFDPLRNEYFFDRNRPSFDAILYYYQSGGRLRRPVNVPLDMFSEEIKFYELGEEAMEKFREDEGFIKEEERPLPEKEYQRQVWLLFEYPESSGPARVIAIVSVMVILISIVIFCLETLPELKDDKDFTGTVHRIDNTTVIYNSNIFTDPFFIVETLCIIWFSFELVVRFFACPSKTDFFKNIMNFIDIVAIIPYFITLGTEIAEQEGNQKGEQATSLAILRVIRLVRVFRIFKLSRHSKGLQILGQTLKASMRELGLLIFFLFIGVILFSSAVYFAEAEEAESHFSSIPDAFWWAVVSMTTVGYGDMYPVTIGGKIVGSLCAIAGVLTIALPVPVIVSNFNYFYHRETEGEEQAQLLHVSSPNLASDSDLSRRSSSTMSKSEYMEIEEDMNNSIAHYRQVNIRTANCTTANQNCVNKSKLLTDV
# human Kv1.1 = human Kv1.1 (Homo sapiens, UniProt Q09470); set-up: expressed in transfected cells; host or cells: HEK293; conditions: Kv1.1 (IC50, pM)
# human Kv1.1, sequence (Q09470 whole entry): as above
# human Kv1.3 channel, sequence (P22001 whole entry): as the sequence (P22001 whole entry) above
Molecule,IC50 (human Kv1.3 channel),IC50 (human Kv1.3 (CHO)),IC50 (human Kv1.1 (HEK293)),IC50 (human Kv1.1),fold difference in Kv1.3 potency compared to Fc-L10-OSK1 (human Kv1.3 channel)
"CC[C@H](C)[C@@H]1NC(=O)[C@H](CCCCN)NC(=O)[C@@H](NC(=O)[C@H](CCCCN)NC(=O)[C@@H](NC(=O)[C@H](CC(N)=O)NC(=O)[C@@H](NC(=O)[C@@H](NC(=O)[C@@H](NC(=O)CN)C(C)C)[C@@H](C)CC)[C@@H](C)CC)C(C)C)CSSC[C@@H]2NC(=O)[C@H](CCCCN)NC(=O)CNC(=O)[C@H](Cc3ccccc3)NC(=O)[C@H](CCCNC(=N)N)NC(=O)[C@H](CCSC)NC(=O)CNC(=O)[C@H](C)NC(=O)[C@H](CCCCN)NC(=O)[C@H](CCCCN)NC(=O)[C@@H]3CSSC[C@@H](C(=O)N[C@H](C(=O)N4CCC[C@H]4C(=O)N[C@@H](CCCCN)C(=O)O)[C@@H](C)O)NC(=O)[C@H](C)NC(=O)[C@H](CSSC[C@H](NC(=O)[C@H](CCC(N)=O)NC(=O)[C@H](CCCNC(=N)N)NC(=O)[C@H](CO)NC1=O)C(=O)N[C@@H](CC(C)C)C(=O)N[C@@H](CCC(=O)O)C(=O)N1CCC[C@H]1C(=O)N3)NC(=O)[C@H](CCCCN)NC(=O)CNC(=O)[C@H](CC(N)=O)NC(=O)[C@H](CCSC)NC2=O [H34A] (H-GVIINVKCKISRQCLEPCKKAGMRFGKCMNGKCACTPK-OH; disulfide 8-28, 14-33, 18-35)",0.016 nM,0.0194 nM,0.368 nM,12800 pM,
"CC[C@H](C)[C@@H]1NC(=O)[C@H](CCCCN)NC(=O)[C@@H](NC(=O)[C@H](CCCCN)NC(=O)[C@@H](NC(=O)[C@H](CC(N)=O)NC(=O)[C@@H](NC(=O)[C@@H](NC(=O)[C@@H](NC(=O)CN)C(C)C)[C@@H](C)CC)[C@@H](C)CC)C(C)C)CSSC[C@@H]2NC(=O)[C@H](CCCCN)NC(=O)CNC(=O)[C@H](Cc3ccccc3)NC(=O)[C@H](CCCNC(=N)N)NC(=O)[C@H](CCSC)NC(=O)CNC(=O)[C@H](C)NC(=O)[C@H](CCCCN)NC(=O)[C@H](CCCCN)NC(=O)[C@@H]3CSSC[C@@H](C(=O)N[C@H](C(=O)N4CCC[C@H]4C(=O)N[C@@H](CCCCN)C(=O)O)[C@@H](C)O)NC(=O)[C@H](CCC(=O)O)NC(=O)[C@H](CSSC[C@H](NC(=O)[C@H](CCC(N)=O)NC(=O)[C@H](CCCNC(=N)N)NC(=O)[C@H](CO)NC1=O)C(=O)N[C@@H](CC(C)C)C(=O)N[C@@H](CCC(=O)O)C(=O)N1CCC[C@H]1C(=O)N3)NC(=O)[C@H](CCCCN)NC(=O)CNC(=O)[C@H](CC(N)=O)NC(=O)[C@H](CCSC)NC2=O [H34E] (H-GVIINVKCKISRQCLEPCKKAGMRFGKCMNGKCECTPK-OH; disulfide 8-28, 14-33, 18-35)",1.32 nM,0.33 nM,1.69 nM,39400 pM,
"CC[C@H](C)[C@@H]1NC(=O)[C@H](CCCCN)NC(=O)[C@@H](NC(=O)[C@H](CCCCN)NC(=O)[C@@H](NC(=O)[C@H](CC(N)=O)NC(=O)[C@@H](NC(=O)[C@@H](NC(=O)[C@@H](NC(=O)CN)C(C)C)[C@@H](C)CC)[C@@H](C)CC)C(C)C)CSSC[C@@H]2NC(=O)[C@H](CCCCN)NC(=O)CNC(=O)[C@H](Cc3ccccc3)NC(=O)[C@H](CCCNC(=N)N)NC(=O)[C@H](CCSC)NC(=O)CNC(=O)[C@H](C)NC(=O)[C@H](CCCCN)NC(=O)[C@H](CCCCN)NC(=O)[C@@H]3CSSC[C@@H](C(=O)N[C@H](C(=O)N4CCC[C@H]4C(=O)N[C@@H](CCCCN)C(=O)O)[C@@H](C)O)NC(=O)[C@H](Cc4c[nH]cn4)NC(=O)[C@H](CSSC[C@H](NC(=O)[C@H](CCC(N)=O)NC(=O)[C@H](CCCNC(=N)N)NC(=O)[C@H](CO)NC1=O)C(=O)N[C@@H](CC(C)C)C(=O)N[C@@H](CCC(=O)O)C(=O)N1CCC[C@H]1C(=O)N3)NC(=O)[C@H](CCCCN)NC(=O)CNC(=O)[C@H](CC(N)=O)NC(=O)[C@H](C)NC2=O [M29A] (H-GVIINVKCKISRQCLEPCKKAGMRFGKCANGKCHCTPK-OH; disulfide 8-28, 14-33, 18-35)",,0.0595 nM,> 3.33 nM,3470 pM,
"CC[C@H](C)[C@@H]1NC(=O)[C@H](CCCCN)NC(=O)[C@@H](NC(=O)[C@H](CCCCN)NC(=O)[C@@H](NC(=O)[C@H](CC(N)=O)NC(=O)[C@@H](NC(=O)[C@@H](NC(=O)[C@@H](NC(=O)CN)C(C)C)[C@@H](C)CC)[C@@H](C)CC)C(C)C)CSSC[C@@H]2NC(=O)[C@H](CCCCN)NC(=O)CNC(=O)[C@H](Cc3ccccc3)NC(=O)[C@H](CCCNC(=N)N)NC(=O)[C@H](CCSC)NC(=O)CNC(=O)[C@H](C)NC(=O)[C@H](CCCCN)NC(=O)[C@H](CCCCN)NC(=O)[C@@H]3CSSC[C@@H](C(=O)N[C@@H](CCCNC(=N)N)C(=O)N4CCC[C@H]4C(=O)N[C@@H](CCCCN)C(=O)O)NC(=O)[C@H](Cc4c[nH]cn4)NC(=O)[C@H](CSSC[C@H](NC(=O)[C@H](CCC(N)=O)NC(=O)[C@H](CCCNC(=N)N)NC(=O)[C@H](CO)NC1=O)C(=O)N[C@@H](CC(C)C)C(=O)N[C@@H](CCC(=O)O)C(=O)N1CCC[C@H]1C(=O)N3)NC(=O)[C@H](CCCCN)NC(=O)CNC(=O)[C@H](CC(N)=O)NC(=O)[C@H](CCSC)NC2=O [T36R] (H-GVIINVKCKISRQCLEPCKKAGMRFGKCMNGKCHCRPK-OH; disulfide 8-28, 14-33, 18-35)",,1.31 nM,0.0266 nM,,
"CC[C@H](C)[C@@H]1NC(=O)[C@H](CCCCN)NC(=O)[C@@H](NC(=O)[C@H](CCCCN)NC(=O)[C@@H](NC(=O)[C@H](CC(N)=O)NC(=O)[C@@H](NC(=O)[C@@H](NC(=O)[C@H](CCC(=O)O)NC(=O)CN)[C@@H](C)CC)[C@@H](C)CC)C(C)C)CSSC[C@@H]2NC(=O)[C@H](CCCCN)NC(=O)CNC(=O)[C@H](Cc3ccccc3)NC(=O)[C@H](CCCNC(=N)N)NC(=O)[C@H](CCSC)NC(=O)CNC(=O)[C@H](C)NC(=O)[C@H](CCCCN)NC(=O)[C@H](CCCCN)NC(=O)[C@@H]3CSSC[C@@H](C(=O)N[C@H](C(=O)N4CCC[C@H]4C(=O)N[C@@H](CCCCN)C(=O)O)[C@@H](C)O)NC(=O)[C@H](Cc4c[nH]cn4)NC(=O)[C@H](CSSC[C@H](NC(=O)[C@H](CCC(N)=O)NC(=O)[C@H](CCCNC(=N)N)NC(=O)[C@H](CO)NC1=O)C(=O)N[C@@H](CC(C)C)C(=O)N[C@@H](CCC(=O)O)C(=O)N1CCC[C@H]1C(=O)N3)NC(=O)[C@H](CCCCN)NC(=O)CNC(=O)[C@H](CC(N)=O)NC(=O)[C@H](CCSC)NC2=O [V2E] (H-GEIINVKCKISRQCLEPCKKAGMRFGKCMNGKCHCTPK-OH; disulfide 8-28, 14-33, 18-35)",,0.0362 nM,0.035 nM,,
"CC[C@H](C)[C@@H]1NC(=O)[C@H](CCCCN)NC(=O)[C@@H](NC(=O)[C@H](CCCCN)NC(=O)[C@@H](NC(=O)[C@H](CC(N)=O)NC(=O)[C@@H](NC(=O)[C@@H](NC(=O)[C@H](CCCNC(=N)N)NC(=O)CN)[C@@H](C)CC)[C@@H](C)CC)C(C)C)CSSC[C@@H]2NC(=O)[C@H](CCCCN)NC(=O)CNC(=O)[C@H](Cc3ccccc3)NC(=O)[C@H](CCCNC(=N)N)NC(=O)[C@H](CCSC)NC(=O)CNC(=O)[C@H](C)NC(=O)[C@H](CCCCN)NC(=O)[C@H](CCCCN)NC(=O)[C@@H]3CSSC[C@@H](C(=O)N[C@H](C(=O)N4CCC[C@H]4C(=O)N[C@@H](CCCCN)C(=O)O)[C@@H](C)O)NC(=O)[C@H](Cc4c[nH]cn4)NC(=O)[C@H](CSSC[C@H](NC(=O)[C@H](CCC(N)=O)NC(=O)[C@H](CCCNC(=N)N)NC(=O)[C@H](CO)NC1=O)C(=O)N[C@@H](CC(C)C)C(=O)N[C@@H](CCC(=O)O)C(=O)N1CCC[C@H]1C(=O)N3)NC(=O)[C@H](CCCCN)NC(=O)CNC(=O)[C@H](CC(N)=O)NC(=O)[C@H](CCSC)NC2=O [V2R] (H-GRIINVKCKISRQCLEPCKKAGMRFGKCMNGKCHCTPK-OH; disulfide 8-28, 14-33, 18-35)",,0.133 nM,0.0258 nM,,
"CC[C@H](C)[C@@H]1NC(=O)[C@H](CCCCN)NC(=O)[C@@H](NC(=O)[C@H](CCCCN)NC(=O)[C@H](C)NC(=O)[C@H](CC(N)=O)NC(=O)[C@@H](NC(=O)[C@@H](NC(=O)[C@@H](NC(=O)CN)C(C)C)[C@@H](C)CC)[C@@H](C)CC)CSSC[C@@H]2NC(=O)[C@H](CCCCN)NC(=O)CNC(=O)[C@H](Cc3ccccc3)NC(=O)[C@H](CCCNC(=N)N)NC(=O)[C@H](CCSC)NC(=O)CNC(=O)[C@H](C)NC(=O)[C@H](CCCCN)NC(=O)[C@H](CCCCN)NC(=O)[C@@H]3CSSC[C@@H](C(=O)N[C@H](C(=O)N4CCC[C@H]4C(=O)N[C@@H](CCCCN)C(=O)O)[C@@H](C)O)NC(=O)[C@H](Cc4c[nH]cn4)NC(=O)[C@H](CSSC[C@H](NC(=O)[C@H](CCC(N)=O)NC(=O)[C@H](CCCNC(=N)N)NC(=O)[C@H](CO)NC1=O)C(=O)N[C@@H](CC(C)C)C(=O)N[C@@H](CCC(=O)O)C(=O)N1CCC[C@H]1C(=O)N3)NC(=O)[C@H](CCCCN)NC(=O)CNC(=O)[C@H](CC(N)=O)NC(=O)[C@H](CCSC)NC2=O [V6A] (H-GVIINAKCKISRQCLEPCKKAGMRFGKCMNGKCHCTPK-OH; disulfide 8-28, 14-33, 18-35)",,0.174 nM,0.0128 nM,,
"CC[C@H](C)[C@@H]1NC(=O)[C@H](CCCCN)NC(=O)[C@@H](NC(=O)[C@H](CCCCN)NC(=O)[C@H](CCC(=O)O)NC(=O)[C@H](CC(N)=O)NC(=O)[C@@H](NC(=O)[C@@H](NC(=O)[C@@H](NC(=O)CN)C(C)C)[C@@H](C)CC)[C@@H](C)CC)CSSC[C@@H]2NC(=O)[C@H](CCCCN)NC(=O)CNC(=O)[C@H](Cc3ccccc3)NC(=O)[C@H](CCCNC(=N)N)NC(=O)[C@H](CCSC)NC(=O)CNC(=O)[C@H](C)NC(=O)[C@H](CCCCN)NC(=O)[C@H](CCCCN)NC(=O)[C@@H]3CSSC[C@@H](C(=O)N[C@H](C(=O)N4CCC[C@H]4C(=O)N[C@@H](CCCCN)C(=O)O)[C@@H](C)O)NC(=O)[C@H](Cc4c[nH]cn4)NC(=O)[C@H](CSSC[C@H](NC(=O)[C@H](CCC(N)=O)NC(=O)[C@H](CCCNC(=N)N)NC(=O)[C@H](CO)NC1=O)C(=O)N[C@@H](CC(C)C)C(=O)N[C@@H](CCC(=O)O)C(=O)N1CCC[C@H]1C(=O)N3)NC(=O)[C@H](CCCCN)NC(=O)CNC(=O)[C@H](CC(N)=O)NC(=O)[C@H](CCSC)NC2=O [V6E] (H-GVIINEKCKISRQCLEPCKKAGMRFGKCMNGKCHCTPK-OH; disulfide 8-28, 14-33, 18-35)",,0.0177 nM,0.00243 nM,,
Fc-L10-OSK1[K7S]: OSK1-peptibody with lysine to serine substitution at position 7,,,,,2 fold
